According to publication PMC2891058 (Biochemistry, 2010):

How the values were obtained:
[1] = molecular target: S. typhimurium QAPRTase (quinolinate phosphoribosyltransferase) (Salmonella enterica, UniProt P30012, K154A); assay: biochemical
[2] = molecular target: S. typhimurium QAPRTase (quinolinate phosphoribosyltransferase) (Salmonella enterica, UniProt P30012, K285A); assay: biochemical
[3] = molecular target: S. typhimurium QAPRTase (quinolinate phosphoribosyltransferase) (Salmonella enterica, UniProt P30012); assay: stopped-flow tryptophan fluorescence; type: binding
[4] = molecular target: S. typhimurium QAPRTase (quinolinate phosphoribosyltransferase) (Salmonella enterica, UniProt P30012, D236A); assay: biochemical
[5] = molecular target: S. typhimurium QAPRTase (quinolinate phosphoribosyltransferase) (Salmonella enterica, UniProt P30012, E215Q); assay: biochemical
[6] = molecular target: S. typhimurium QAPRTase (quinolinate phosphoribosyltransferase) (Salmonella enterica, UniProt P30012, E215A); assay: biochemical
[7] = molecular target: S. typhimurium QAPRTase (quinolinate phosphoribosyltransferase) (Salmonella enterica, UniProt P30012, E215D); assay: biochemical

In the case of `O=P(O)(O)OC[C@H]1O[C@H](OP(=O)(O)OP(=O)(O)O)[C@H](O)[C@@H]1O` [PRPP], the Kd [1] is reported as > 1000 µM, the Kd [2] is reported as ~1000 µM and the Kd [3] is reported as 53 µM. The Kd [4] was 127 ± 25 µM, the Kd [5] was 113 ± 24 µM and the Kd [6] was 770 ± 200 µM. It also gave a Kd [7] of 417 ± 76 µM.
